Tests used:
[1] = Systolic and diastolic peripheral arterial blood pressure measured in the same animals; assay type: in vivo, Hausschweinen; details: Molsidomin 0.1 mg/kg i.v. alone (Gruppe 1) or with r-Hirudin total 0.2 mg/kg i.v. (Gruppe 3)
From the text: Diese Wirkung wurde in folgendem Test ermittelt: Bei männlichen, ca. 4 Monate alten Hausschweinen wurde eine Coronarthrombose nach der Methode von Folts et al (Circulation 1976, 54; 365 - 70) erzeugt. Bei den tief narkotisierten Tieren wurde der Thorax eröffnet; die linke absteigende Coronararterie wurde freipräpariert und mit einem elektromagnetischen Blutströmungsmeßkopf versehen. Distal des Meßkopfes wurde das Coronargefäß durch kurzes (1 s) Quetschen mit einer Gefäßklemme geschädigt. Auf diese Stelle wurde ein Plastikkonstriktor (innerer Durchmesser 1.7 - 2.8 mm, Länge 2 mm) gesetzt, der das Gefäß stenosiert. Diese Versuchsbedingungen führten zum Auftreten regelmäßiger zyklischer Blutströmungsveränderungen (CFV's), verursacht durch die wiederholte Bildung und Embolisierung von Thromben an der geschädigten stenosierten Stelle. Die Thromben wurden durch Bestimmung der Frequenz (Anzahl pro 60 min) der zyklischen Blutströmungsveränderungen quantifiziert. […]

Coronarthrombose = test: Coronary thrombosis by the method of Folts et al.: frequency of cyclic blood flow variations (CFV's) in the damaged, stenosed left descending coronary artery of anaesthetised pigs; assay type: in vivo, Hausschweinen
Experimental: Bei den tief narkotisierten Tieren wurde der Thorax eröffnet; die linke absteigende Coronararterie wurde freipräpariert und mit einem elektromagnetischen Blutströmungsmeßkopf versehen. Distal des Meßkopfes wurde das Coronargefäß durch kurzes (1 s) Quetschen mit einer Gefäßklemme geschädigt. Auf diese Stelle wurde ein Plastikkonstriktor (innerer Durchmesser 1.7 - 2.8 mm, Länge 2 mm) gesetzt, der das Gefäß stenosiert. […] Die Thromben wurden durch Bestimmung der Frequenz (Anzahl pro 60 min) der zyklischen Blutströmungsveränderungen quantifiziert. […] 0.1 mg/kg Molsidomin i.v. zusammen mit 0.1 mg/kg r-Hirudin i.v., gefolgt von 0.1 mg/kg·60 min r-Hirudin - Infusion.
Der Versuch wurde 1 Stunde nach Ende der Infusion bzw. 2 Stunden nach Bolusinjektion der Substanzen beendet. Die Frequenzen der zyklischen Blutströmungsveränderungen in der Stunde vor und in der ersten und zweiten Stunde nach Injektion der Prüfsubstanzen wurden für jede Versuchsgruppe gemittelt. Die mittleren Frequenzen der Zyklen vor und nach Substanzverabreichung wurden statistisch miteinander verglichen (Student-t-Test für verbundene Stichproben). Ein p - Wert von < 0.05 galt als signifikanter Unterschied.

CCOC(=O)[N-]c1cn(N2CCOCC2)n[o+]1 [Molsidomin, N-Ethoxycarbonyl-3-morpholino-sydnonimin]
Senkung des diastolischen Blutdrucks ([1]; decrease not significant): 10 ± 5 mm Hg
Senkung des systolischen Blutdrucks ([1]; maximal decrease, p < 0.05): 18 ± 5 mm Hg
Anzahl thrombotischer Flowzyklen (n/60 min) 1. Stunde nach Substanzinjektion (Coronarthrombose; 1st hour after injection, Molsidomin 0.1 mg/kg i.v. bolus, r-Hirudin total 0.2 mg/kg (0.1 mg/kg i.v. bolus + i.v. infusion over 60 min), combination: both, n=6): 19 ± 3 n/60 min
Anzahl thrombotischer Flowzyklen (n/60 min) 1. Stunde Vorphase (Coronarthrombose; baseline hour before substance injection, mean of group, n=6): 16 ± 2 n/60 min
antithrombotische Wirkung der Einzeldosierungen (Coronarthrombose; preliminary experiments (Vorversuche), single doses: Molsidomin 0.1 mg/kg i.v., r-Hirudin total 0.2 mg/kg i.v.): gerade nicht antithrombotisch wirkend

Source: patent EP0499831A2, “Combination of active agents comprising a sydnonimin derivate and a hirudin” (CASSELLA Aktiengesellschaft, priority 1991, dated 1992)
